Square brackets hold non-standard residues; d marks the D form. Peptide text beside a SMILES is read from it. Sar = CNCC(=O)O
What was measured:
[1] = tested on: Human IL-6 secretion, Normal Human Epidermal Keratinocytes (NHEK); assay: Human IL-6 production in UVB-irradiated NHEK (ELISA); assay type: cell-based; conditions: Table 9, 0.20%, Positive Control 100%; for Human IL-6 Content, Average: 40 mJ/cm^2 UVB; for Human IL-6 Content, Entry 1: passage 2 + 2, 40 mJ/cm^2 UVB; for Human IL-6 Content, Entry 2 / Human IL-6 Content, Entry 3: passage 2 + 3, 40 mJ/cm^2 UVB
Description: (§1) Normal Human Epidermal Keratinocytes (NHEK) (PromoCell No. C-12008);
(§2) Positive Control: 40 mJ/cm^2 UVB,
(§3) Negative Control: No UVB irradiation;
(§4) a. Rinse the confluent NHEK cells with sterile D-PBS then trypsinize all cells and perform cell counting.
(§5) b. Dilute the cell density to 4˜8E+04/mL and seed 0.5 mL cell liquid (equals to 2˜4E+04 cells) each well in 24 well plate.
(§6) c. Incubate NHEK cells at 37° C., 5% CO2 until subconfluence.
(§7) d. Prepared dosing solution of testing material in Complete Medium: 0.4%, 0.2%, 0.1%, 0.05%.
(§8) e. Rinse the NHEK cells with sterile D-PBS and discard rinse buffer. Add 400 μL of controls and testing materials in different concentrations into NHEK cells in 24 well plates.
(§9) f. Pre-incubate NHEK cells with testing material at 37° C., 5% CO2 for about 6 hours.
(§10) g. After pre-incubating for about 6 hours, wash the NHEK cells with sterile D-PBS for twice then add […] sterile D-PBS for UVB irradiation.
(§11) h. UVB intensity is about 2300 μW/cm^2 and UVB energy is about 40 mJ/cm^2.
(§12) i. After UVB irradiation, discard sterile D-PBS and wash again. Add 400 μL of the same dosing solution in to each wells.
(§13) j. Post-incubate at 37° C., 5% CO2 for about 18 hours.
(§14) k. After post-incubating for 18 hours, collect the supernatant of controls and testing materials.
(§15) l. Determine the IL-6/IL-8 content of the supernatant by R&D ELISA kit as mentioned previously.
(§16) Normal Human Epidermal Keratinocytes (NHEK) were treated by the above-mentioned glycine derivatives for evaluating their anti-inflammatory effect on keratinocytes in this example.

[2] = tested on: Human IL-8 secretion, Normal Human Epidermal Keratinocytes (NHEK); assay: Human IL-8 production in UVB-irradiated NHEK (ELISA); assay type: cell-based; conditions: Table 10, 0.20%; for Human IL-8 Content, Average: 40 mJ/cm2 UVB; for Human IL-8 Content, Entry 1: passage 2 + 3, 40 mJ/cm2 UVB; for Human IL-8 Content, Entry 2: passage 2 + 4, 40 mJ/cm2 UVB; for Human IL-8 Content, Entry 3: passage 2 + 5, 40 mJ/cm2 UVB; for Human IL-8 Content, Entry 4: passage 2 + 6, 40 mJ/cm2 UVB
Description: as §1, §2, §3, §4, §5, §6, §7, §8, §9, §10, §11, §12, §13, §14, §15, §16

CC(=O)NCC(=O)NCCCC(=O)O [Ac-Gly-GABA, 4-(2-Acetylamino-acetylamino)-butyric acid]
Human IL-6 Content, Average [1]: 14%
Human IL-6 Content, Entry 1 [1]: 11%
Human IL-6 Content, Entry 2 [1]: 25%
Human IL-6 Content, Entry 3 [1]: 6%
Human IL-8 Content, Average [2]: 70%
Human IL-8 Content, Entry 1 [2]: 59%
Human IL-8 Content, Entry 2 [2]: 70%
Human IL-8 Content, Entry 3 [2]: 64%
Human IL-8 Content, Entry 4 [2]: 87%

CC(=O)NCC(=O)NCC(=O)O [Ac-Gly-Gly, (2-acetylamino-acetylamino)-acetic acid]
Human IL-6 Content, Average [1]: 20%
Human IL-6 Content, Entry 1 [1]: 12%
Human IL-6 Content, Entry 2 [1]: 16%
Human IL-6 Content, Entry 3 [1]: 33%
Human IL-8 Content, Average [2]: 59%
Human IL-8 Content, Entry 2 [2]: 68%
Human IL-8 Content, Entry 3 [2]: 54%
Human IL-8 Content, Entry 4 [2]: 53%

CC(=O)NCC(=O)N(C)CC(=O)O [Ac-Gly-Sar, [(2-Acetylamino-acetyl)-methyl-amino]-acetic acid] (Ac-Gly-[Sar]-OH)
Human IL-6 Content, Average [1]: 14%
Human IL-6 Content, Entry 1 [1]: 14%
Human IL-6 Content, Entry 2 [1]: 21%
Human IL-6 Content, Entry 3 [1]: 7%
Human IL-8 Content, Average [2]: 76%
Human IL-8 Content, Entry 1 [2]: 73%
Human IL-8 Content, Entry 2 [2]: 70%
Human IL-8 Content, Entry 3 [2]: 74%
Human IL-8 Content, Entry 4 [2]: 88%
